Experimental data as given in ChEMBL document CHEMBL4602703, “Lead Optimization of a Pyrrole-Based Dihydroorotate Dehydrogenase Inhibitor Series for the Treatment of Malaria” (J Med Chem, 2020).

Legend:
[1] = biological target: Albumin (Homo sapiens, UniProt P02768); test: Binding affinity to albumin (unknown origin) by chromatographic method; assay type: ADME; conditions: albumin, read-out: PB (converted)
[2] = biological target: Dihydroorotate dehydrogenase (quinone), mitochondrial (Homo sapiens, UniProt Q02127)
[3] = biological target: Dihydroorotate dehydrogenase (quinone), mitochondrial (Rattus norvegicus, UniProt Q63707)
[4] = biological target: Dihydroorotate dehydrogenase (quinone), mitochondrial (Mus musculus, UniProt O35435)
[5] = Intrinsic clearance in mouse liver microsomes assessed as per mg protein; assay type: ADME, Microsome; conditions: microsomes
[6] = Intrinsic clearance in human liver microsomes assessed as per mg protein; assay type: ADME, Microsome
[7] = tested on: Plasmodium falciparum; test: microbe, parasite or virus in culture; conditions: 3D7, 72 h
[8] = physchem; conditions: octanol/water, pH 7.4
[9] = Inhibition of N-terminal His6-tagged Plasmodium falciparum DHODH expressed in Escherichia coli BL21(DE3) cells using L-DHO as substrate by DCIP dye based assay

Chain of Albumin (P02768 whole entry): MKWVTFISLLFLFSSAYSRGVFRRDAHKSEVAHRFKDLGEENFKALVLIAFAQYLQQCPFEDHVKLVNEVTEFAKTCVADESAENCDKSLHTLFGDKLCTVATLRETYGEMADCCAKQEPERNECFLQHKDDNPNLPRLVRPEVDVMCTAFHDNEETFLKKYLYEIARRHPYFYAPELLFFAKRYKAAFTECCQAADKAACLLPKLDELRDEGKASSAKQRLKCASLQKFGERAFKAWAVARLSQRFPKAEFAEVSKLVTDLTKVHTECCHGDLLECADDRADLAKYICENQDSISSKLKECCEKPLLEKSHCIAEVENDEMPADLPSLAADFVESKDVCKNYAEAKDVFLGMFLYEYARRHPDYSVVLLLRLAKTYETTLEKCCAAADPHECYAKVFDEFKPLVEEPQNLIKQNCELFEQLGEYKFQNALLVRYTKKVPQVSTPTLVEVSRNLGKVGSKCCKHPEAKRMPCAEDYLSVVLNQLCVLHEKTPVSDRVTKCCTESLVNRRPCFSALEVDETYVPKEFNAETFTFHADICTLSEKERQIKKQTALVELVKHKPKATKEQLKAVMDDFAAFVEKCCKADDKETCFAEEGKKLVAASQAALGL
Chain of Dihydroorotate dehydrogenase (quinone), mitochondrial (Homo sapiens, UniProt Q02127) (Q02127 whole entry): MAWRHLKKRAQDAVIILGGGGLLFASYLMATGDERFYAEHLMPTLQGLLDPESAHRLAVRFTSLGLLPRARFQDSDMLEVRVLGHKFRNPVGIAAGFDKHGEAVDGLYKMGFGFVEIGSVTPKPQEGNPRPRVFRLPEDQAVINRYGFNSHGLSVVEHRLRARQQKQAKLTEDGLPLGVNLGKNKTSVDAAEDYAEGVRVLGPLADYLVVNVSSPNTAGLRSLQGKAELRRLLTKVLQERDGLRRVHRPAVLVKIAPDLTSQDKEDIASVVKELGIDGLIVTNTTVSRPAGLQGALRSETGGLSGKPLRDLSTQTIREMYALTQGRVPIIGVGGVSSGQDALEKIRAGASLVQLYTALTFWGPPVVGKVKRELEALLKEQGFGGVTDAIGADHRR
Chain of Dihydroorotate dehydrogenase (quinone), mitochondrial (Mus musculus, UniProt O35435) (O35435 whole entry): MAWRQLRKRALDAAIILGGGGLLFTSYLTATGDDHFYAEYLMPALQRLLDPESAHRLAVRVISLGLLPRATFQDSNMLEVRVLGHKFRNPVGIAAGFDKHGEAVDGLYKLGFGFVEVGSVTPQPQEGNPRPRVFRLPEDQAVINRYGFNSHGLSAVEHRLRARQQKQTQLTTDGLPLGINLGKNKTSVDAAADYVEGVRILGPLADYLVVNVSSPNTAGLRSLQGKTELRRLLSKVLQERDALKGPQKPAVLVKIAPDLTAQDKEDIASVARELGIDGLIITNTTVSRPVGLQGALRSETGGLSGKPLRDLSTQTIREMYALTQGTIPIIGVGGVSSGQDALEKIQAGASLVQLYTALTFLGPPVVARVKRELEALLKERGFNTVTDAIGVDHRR
Chain of Dihydroorotate dehydrogenase (quinone), mitochondrial (Rattus norvegicus, UniProt Q63707) (Q63707 whole entry): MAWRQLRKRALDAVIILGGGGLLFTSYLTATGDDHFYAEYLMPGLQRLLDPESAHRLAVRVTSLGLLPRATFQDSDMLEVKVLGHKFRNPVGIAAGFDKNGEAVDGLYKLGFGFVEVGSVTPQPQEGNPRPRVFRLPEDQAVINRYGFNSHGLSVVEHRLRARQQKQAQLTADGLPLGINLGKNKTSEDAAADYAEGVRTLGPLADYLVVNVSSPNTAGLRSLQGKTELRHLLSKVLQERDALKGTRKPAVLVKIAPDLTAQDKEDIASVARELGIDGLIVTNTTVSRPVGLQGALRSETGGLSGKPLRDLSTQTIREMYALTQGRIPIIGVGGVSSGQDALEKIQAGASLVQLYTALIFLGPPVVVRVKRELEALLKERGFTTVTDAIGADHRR

Row | SMILES | fraction unbound [1] | IC50 [2] | IC50 [3] | IC50 [4] | microsomal CLint [5] | microsomal CLint [6] | EC50 [7] | logD [8] | IC50 [9]
1 | CCOC(=O)c1[nH]c(C)c(Cc2ccc(C(F)(F)F)nc2)c1C | 0.064 | > 100000 nM | > 100000 nM | > 100000 nM | 779 µL/min/mg | 286 µL/min/mg | 9.2 nM | 3.7 | 
2 | O=C(NC1CC1)c1cc(Cc2ccc(C(F)(F)F)nc2)c[nH]1 | 0.333 | > 100000 nM |  |  | 96 µL/min/mg | 31 µL/min/mg | 500 to 1700 nM | 2.6 | 2500 nM
3 | Cc1[nH]c(C(=O)NC2CC2)c(C)c1Oc1ccc(C(F)(F)F)nc1 | 0.573 | > 100000 nM |  |  | 22 µL/min/mg | 8 µL/min/mg | 290 nM | 1.7 | 800 nM
4 | Cc1c(Cc2ccc(C(F)(F)F)nc2)c[nH]c1C(=O)N1CCC1 | 0.341 | > 100000 nM |  |  | 192 µL/min/mg | < 7 µL/min/mg | 82 nM | 2.7 | 170 nM
5 | CCOC(=O)c1[nH]c(C)c(Cc2ccc(C(F)(F)F)cc2)c1C |  | > 100000 nM | > 100000 nM | > 100000 nM |  |  | 61 to 71 nM |  | 
6 | Cc1c(Cc2ccc(C(F)(F)F)nc2)c[nH]c1C(=O)NC1CCC1 | 0.165 | > 100000 nM |  |  | 204 µL/min/mg | 29 µL/min/mg | 27 nM | 3.2 | 44 nM
7 | CCCNC(=O)c1[nH]c(C)c(Cc2ccc(C(F)(F)F)nc2)c1C | 0.155 | > 100000 nM |  |  | 64 µL/min/mg | 172 µL/min/mg | 47 nM | 3.2 | 72 nM
8 | CCNC(=O)c1[nH]c(C)c(Cc2ccc(C(F)(F)F)nc2)c1C | 0.229 | > 100000 nM |  |  | 54 µL/min/mg | 70 µL/min/mg | 33 nM | 2.8 | 54 nM
9 | Cc1c(Cc2ccc(C(F)(F)F)cc2F)c[nH]c1C(=O)NC1CC1 | 0.03 | > 100000 nM |  |  | 184 µL/min/mg | 15 µL/min/mg | 16 nM | 3.8 | 44 nM
10 | Cc1c(Cc2ccc(C(F)(F)F)cc2Cl)c[nH]c1C(=O)NC1CC1 | 0.019 | > 100000 nM |  |  | 264 µL/min/mg | 14 µL/min/mg | 20 nM | 4.1 | 17 nM
